What all share (type): cell-based
In one experiment the test system is T-47D cells. In words: T-47D cell proliferation inhibition, CCK-8. Conditions: Homo sapiens, T47D, 144 h, 6 days. Here is the method: The complete medium required for T-47D cells is 1640 (ATCC, Product number: A10491-01) basal medium containing 10% fetal bovine serum. T-47D cells were seeded in a 96-well plate at a density of 3,000/well, and different concentrations of the compound of the present invention and the positive control sample ARV-471 (source: Innochem) were prepared to treat the cells. The cells were incubated at 37° C., 5% for 6 days in a CO2 cell incubator. Cell viability was detected using the CCK-8 kit (Beyotime, Product number: C0040) according to the manufacturer's instructions. According to the inhibition rate, the GraphPadPrism software was used to calculate the IC50 value of each compound for 6 days, and the results are shown in Table 17.

The next experiment concerns MCF-7 cells. In words: MCF-7 cell proliferation inhibition, CCK-8. As to conditions: Homo sapiens, MCF7, 216 h, MCF-7, 9 days. As for the experimental part:
The complete medium required for MCF-7 cells is DMEM (gibco, Product number: 11995-065) basal medium containing 10% fetal bovine serum. MCF-7 cells were seeded in a 96-well plate at a density of 800/well, and different concentrations of the compound of the present invention and the positive control sample ARV-471 (source: Enochem) were prepared to treat the cells. The cells were incubated at 37° C., 5% 9 days in a CO2 cell incubator. Cell viability was detected using the CCK-8 kit (Beyotime, Product number: C0040) according to the manufacturer's instructions. According to the inhibition rate, GraphPadPrism software was used to calculate the IC50 value of each compound for 9 days, and the results are shown in Table 18.

For another experiment, the system named is HeLa cells. The experiment is described as follows: HeLa cell proliferation inhibition, CCK-8. Conditions: Homo sapiens, 72 h, 3 days. As for the experimental part:
The complete medium required for HeLa cells is DMEM high glucose (Gibco, Product number: 11995-065) basal medium containing 10% fetal bovine serum. HeLa cells were seeded in a 96-well plate at a density of 4,000 cells/well, and the next day, different concentrations of the compound of the present invention and the positive control sample Ceritinib (source: Bide Pharmaceuticals) were prepared to treat the cells. The cells were incubated at 37° C., 5% CO2 cell culture incubator for 3 days. Cell viability was detected using the CCK-8 kit (Beyotime, Product number: C0040) according to the manufacturer's instructions. According to the inhibition rate, GraphPad Prism software was used to calculate the IC50 value of each compound for 3 days, and the results are shown in Table 2.

In a further experiment the test system is A549 cells. The experiment is described as follows: A549 cell proliferation inhibition, CCK-8. Conditions: Homo sapiens, 96 h, A549, 4 days. Here is the method:
The complete medium required for A549 cells is F-12K (ATCC, Product number: 30-2004) basal medium containing 10% fetal bovine serum. A549 cells were seeded in a 96-well plate at a density of 2,800 cells/well, and the next day, different concentrations of the compound of the present invention and a positive control sample Ceritinib (source: Bide Pharmaceuticals) were prepared to treat the cells. The cells were incubated at 37° C., 5% CO2 cell incubator for 4 days. Cell viability was detected using the CCK-8 kit (Beyotime, Product number: C0040) according to the manufacturer's instructions. According to the inhibition rate, the GraphPad Prism software was used to calculate the IC50 value of each compound for 4 days, and the results are shown in Table 3.

As usually defined, the IC50 is the concentration that gives 50% inhibition. A higher IC50 goes with a need for much substance. On to `O=C1CCC(N2Cc3cc4c(cc3C2=O)CCC2(CN(C3CCC5(CC3)CN(c3ccc([C@@H]6c7ccc(O)cc7CC[C@@H]6c6ccccc6)cc3)C5)C2)O4)C(=O)N1` (stereo partly drawn) [PROTAC 55, 3-(1-(2-(4-((1R,2S)-6-hydroxy-2-phenyl-1,2,3,4-tetrahydronaphthalen-1-yl)phenyl)-2-azaspiro [3.5]non-7-yl)-6′-oxo-3′,4′,6′,8′-tetrahydro-7′H-spiro[azetidine-3,2′-pyrano[2,3-f]isoindol]-7′-yl)piperidine-2,6-dione], for which the IC50 amounted to 0.0066 µM in the experiment with T-47D cells and 0.04 µM in the experiment with MCF-7 cells.

In the case of `O=C1CCC(N2C(=O)c3cc4c(cc3C2=O)C2(CCN(C3CCC5(CC3)CCN(c3ccc([C@@H]6c7ccc(O)cc7CC[C@@H]6c6ccccc6)cc3)CC5)CC2)CO4)C(=O)N1` (stereo partly drawn) [PROTAC 54, 6-(2,6-dioxopiperidin-3-yl)-1′-(3-(4-((1R,2S)-6-hydroxy-2-phenyl-1,2,3,4-tetralin-1-yl)phenyl)-3-azaspiro[5.5]undec-9-yl)-6-hydrogen-2H,5H-spiro[furo[2,3-f]isoindole-3,4′-piperidine]-5,7-dione], the IC50 with T-47D cells was determined as 0.068 µM; in the experiment with MCF-7 cells, 0.17 µM.

Turning to `Cc1cc(Nc2ncc(Cl)c(Nc3ccccc3S(=O)(=O)C(C)C)n2)c(OC(C)C)cc1C1CCN(CCOCCC(=O)N2CCC3(CCc4cc5c(cc4O3)C(=O)N(C3CCC(=O)NC3=O)C5=O)CC2)CC1` (stereo not shown) [PROTAC 29, 1-(3-(2-(4-(4-((5-chloro-4-((2-(isopropylsulfonyl)phenyl)amino)pyrimidin-2-yl)amino)-5-isopropoxy-2-methylphenyl)piperidin-1-yl)ethoxy)propionyl)-7′-(2,6-dioxopiperidin-3-yl)-3′,4′-dihydro-6′H-spiro[piperidine-4,2′-pyrano[2,3-f]isoindole]-6′,8′(7′H)-dione], the IC50 in the experiment with HeLa cells is 5.41 µM; in the experiment with A549 cells, 4.34 µM.

Turning to `O=C1CCC(N2Cc3cc4c(cc3C2=O)CCC2(CCN(C3CC5(CCN(c6ccc([C@@H]7c8ccc(O)cc8CC[C@@H]7c7ccccc7)cc6)CC5)C3)CC2)O4)C(=O)N1` (stereo partly drawn) [PROTAC 57, 3-(1-(7-(4-((1R,2S)-6-hydroxy-2-phenyl-1,2,3,4-tetrahydronaphthalen-1-yl)phenyl)-7-nitrogenheterospiro[3.5]non-2-yl)-6′-oxo-3′,4′,6′,8′-tetrahydro-7′H-spiro[piperidin-4,2′-pyrano [2,3-f]isoindole]-7′-yl)piperidine-2,6-dione], the figures for the half-inhibitory concentration (IC50) with T-47D cells and in the experiment on MCF-7 cells were 0.002 µM and 0.01 µM, respectively.

As for `Cc1cc(Nc2ncc(Cl)c(Nc3ccccc3S(=O)(=O)C(C)C)n2)c(OC(C)C)cc1C1CCN(CCOCCC(=O)N2CCC3(CC2)COc2cc4c(cc23)C(=O)N(C2CCC(=O)NC2=O)C4=O)CC1` (stereo not shown) [PROTAC 31, 1′-(3-(2-(4-(4-((5-chloro-4-((2-(isopropylsulfonyl)phenyl)amino)pyrimidin-2-yl)amino)-5-isopropoxy-2-methylphenyl)piperidin-1-yl)ethoxy)propionyl)-6-(2,6-dioxopiperidin-3-yl)-6-hydrogen-2H,5H-spiro[furo[2,3-f]isoindole-3,4′-piperidine]-5,7-dione], the IC50 was determined as 4.65 µM in the experiment on HeLa cells and 10.2 µM with A549 cells.

Regarding `O=C1CCC(N2Cc3cc4c(cc3C2=O)CCC2(CN(C3CCC5(CC3)CCN(c3ccc([C@@H]6c7ccc(O)cc7CC[C@@H]6c6ccccc6)cc3)CC5)C2)O4)C(=O)N1` (stereo partly drawn) [PROTAC 52, 3-(1-(3-(4-((1R,2S)-6-hydroxy-2-phenyl-1,2,3,4-tetrahydronaphthalen-1-yl)phenyl)-3-azaspiro [5.5]undec-9-yl)-6′-oxo-3′,4′,6′,8′-tetrahydro-7′H-spiro[azetidine-3,2′-pyrano[2,3]isoindol]-7′-yl)piperidine-2,6-dione], the IC50 came to 0.0092 µM with T-47D cells and 0.03 µM in the experiment with MCF-7 cells.

Turning to `Cc1cc(Nc2ncc(Cl)c(Nc3ccccc3S(=O)(=O)C(C)C)n2)c(OC(C)C)cc1C1CCN(CCOCCC(=O)N2CC3(CCc4cc5c(cc4O3)CN(C3CCC(=O)NC3=O)C5=O)C2)CC1` (stereo not shown) [PROTAC 27, 3-(1-(3-(2-(4-(4-((5-chloro-4-((2-(isopropylsulfonyl)phenyl)amino)pyrimidin-2-yl)amino)-5-isopropoxy-2-methylphenyl)piperidin-1-yl)ethoxy)propionyl)-6′-oxo-3′,4′,6′,8′-tetrahydro-7′H-spiro[azetidine-3,2′-pyrano[2,3-f]isoindole]-7′-yl)piperidine-2,6-dione], the IC50 in the experiment with HeLa cells was determined as 4.27 µM; in the experiment with A549 cells it was 11.4 µM.

In the case of `Cc1cc(Nc2ncc(Cl)c(Nc3ccccc3S(=O)(=O)C(C)C)n2)c(OC(C)C)cc1C1CCN(CCOCCC(=O)N2CCC3(CC2)COc2cc4c(cc2C3)C(=O)N(C2CCC(=O)NC2=O)C4=O)CC1` (stereo not shown) [PROTAC 30, 1-(3-(2-(4-(4-((5-chloro-4-((2-(isopropylsulfonyl)phenyl)amino)pyrimidin-2-yl)amino)-5-isopropoxy-2-methylphenyl)piperidin-1-yl)ethoxy)propionyl)-7′-(2,6-dioxopiperidin-3-yl)-2′H-spiro[piperidine-4,3′-pyrano[2,3-f]isoindole]-6′,8′(4′H,7′H)-dione], the values for the IC50 in the experiment on HeLa cells and in the experiment on A549 cells were 3.09 µM and 4.38 µM, respectively.

`O=C1CCC(N2Cc3cc4c(cc3C2=O)OCC2(CCN(C3CC5(CCN(c6ccc([C@@H]7c8ccc(O)cc8CC[C@@H]7c7ccccc7)cc6)CC5)C3)CC2)O4)C(=O)N1` (stereo partly drawn) [PROTAC 58, 3-(1-(7-(4-((1R,2S)-6-hydroxy-2-phenyl-1,2,3,4-tetrahydronaphthalen-1-yl)phenyl)-7-azaspiro [3.5]non-2-yl)-6′-oxo-6′,8′-dihydro-3′H,7′H-spiro[piperidine-4,2′-[1,4]dioxino[2,3-f]isoindol]-7′-yl)piperidine-2,6-dione]: the half-maximal inhibitory concentration (IC50) turned out to be 0.001 µM with T-47D cells and 0.02 µM in the experiment on MCF-7 cells.

In the case of `O=C1CCC(N2Cc3cc4c(cc3C2=O)OC2(CC4)CN(C3CCC4(CC3)CN(c3ccc([C@@H]5c6ccc(O)cc6CC[C@@H]5c5ccccc5)cc3)C4)C2)C(=O)N1` (stereo partly drawn) [PROTAC 53, 3-(1-(2-(4-((1R,2S)-6-hydroxy-2-phenyl-1,2,3,4-tetrahydronaphthalen-1-yl)phenyl)-2-azaspiro [3.5]non-7-yl)-8′-oxo-3′,4′,6′,8′-tetrahydro-7′H-spiro[azetidine-3,2′-pyrano[2,3]isoindol]-7′-yl]piperidine-2,6-dione], the half-maximal inhibitory concentration (IC50) in the experiment on T-47D cells was determined as 0.0029 µM; in the experiment with MCF-7 cells it was 0.09 µM.

Consider `Cc1cc(Nc2ncc(Cl)c(Nc3ccccc3S(=O)(=O)C(C)C)n2)c(OC(C)C)cc1C1CCN(CCOCCC(=O)N2CCC3(CCc4cc5c(cc4O3)CN(C3CCC(=O)NC3=O)C5=O)CC2)CC1` (stereo not shown) [PROTAC 25], for which the half-inhibitory concentration (IC50) in the experiment with HeLa cells is 2.19 µM; in the experiment on A549 cells, 7.02 µM.

For `Cc1cc(Nc2ncc(Cl)c(Nc3ccccc3S(=O)(=O)C(C)C)n2)c(OC(C)C)cc1C1CCNCC1` [Ceritinib, reference compound], the 50% inhibitory concentration (IC50) stood at 5.99 µM in the experiment on HeLa cells and 4.31 µM with A549 cells.

For `Cc1cc(Nc2ncc(Cl)c(Nc3ccccc3S(=O)(=O)C(C)C)n2)c(OC(C)C)cc1C1CCN(CCOCCC(=O)N2CC3(CCc4cc5c(cc4O3)C(=O)N(C3CCC(=O)NC3=O)C5)C2)CC1` (stereo not shown) [PROTAC 28, 3-(1-(3-(2-(4-(4-((5-chloro-4-((2-(isopropylsulfonyl)phenyl)amino)pyrimidin-2-yl)amino)-5-isopropoxy-2-methylphenyl)piperidin-1-yl)ethoxy)propionyl)-8′-oxo-3′,4′,6′,8′-tetrahydro-7′H-spiro[azetidine-3,2′-pyrano[2,3-f]isoindole]-7′-yl)piperidine-2,6-dione], the 50% inhibitory concentration (IC50) in the experiment on HeLa cells was determined as 4.36 µM; in the experiment on A549 cells, 6.81 µM.

On to `Cc1cc(Nc2ncc(Cl)c(Nc3ccccc3S(=O)(=O)C(C)C)n2)c(OC(C)C)cc1C1CCN(CCOCCC(=O)N2CCC3(CCc4cc5c(cc4O3)C(=O)N(C3CCC(=O)NC3=O)C5)CC2)CC1` (stereo not shown) [PROTAC 26, 3-(1-(3-(2-(4-(4-((5-chloro-4-((2-(isopropylsulfonyl)phenyl)amino)pyrimidin-2-yl)amino)-5-isopropoxy-2-methylphenyl)piperidin-1-yl)ethoxy)propionyl)-8′-oxo-3′,4′,6′,8′-tetrahydro-7′H-spiro[piperidine-4,2′-pyrano[2,3-f]isoindole]-7′-yl)piperidine-2,6-dione], for which the 50% inhibitory concentration (IC50) with HeLa cells is 4.33 µM; in the experiment on A549 cells, 4.27 µM.

(Values after patent US20250129088A1, “CEREBLON E3 UBIQUITIN LIGASE INHIBITOR” (Gan & Lee Pharmaceuticals Co., Ltd., priority 2022, published 2025).)
